The EC50 is the midpoint of the concentration-response curve.

For this assay, the system named is ES-2 cells. Briefly: Cytotoxicity / cell vitality by cell confluency (IncuCyte live-cell imaging) relative to DMSO controls. The class given is cell-based. Conditions: Homo sapiens, ovarian cancer-derived ES-2 cells, 72 h post compound application, eleven concentrations, two-fold dilution from 20µM, mean of three independent studies. The protocol:
All novel inhibitors were explored for their cytotoxic activity in ovarian cancer-derived ES-2 cells. In these cell models, BTYNB was prior shown to impair cell vitality and metastatic potential in vitro and cancer mouse models (15). For the respective studies ES-2 cells were plated and exposed to increasing concentration of the compounds and cell vitality was monitored by determining cell confluency relative to DMSO controls using an IncuCyte cell imaging system, essentially as described recently (15). For determining the impact of the developed compounds on ES-2 cell vitality, cells were cultured in Dulbecco's modified eagle medium (DMEM) containing phenol red, 4.5 g/L D-Glucose, 0.11 g/L sodium pyruvate, 10% (v/v) fetal bovine serum (FBS) and 2 mM GlutaMAX (Sigma-Aldrich, Darmstadt, Germany). Cells were maintained in under humidified conditions at 37 °C, 5% CO2. For cytotoxicity studies, cells were seeded in 96-well flat-bottom plates at 2 x 10^3 cells per well in 100 µL supplemented DMEM and incubated for 24 h prior to addition of BTYNB derivatives. Compounds were analyzed at eleven concentrations using a two-fold dilution with an initial compound concentration of 20µM in DMSO (solvent). Cells treated with 0.002% (v/v) DMSO served as controls. Cytotoxicity of compound concentrations was determined 72 h post compound application by monitoring cell confluency using an IncuCyte Systems for Live-Cell Imaging. Cell confluency was determined with the IncuCyte 2019B Rev2 software. Confluency of controls was set to 1 (100%) and altered confluency at distinct compound concentrations was calculated as relative confluency. The mean relative confluency at compound concentrations was analyzed in three independent studies with three technical replicates each. The mean values of three analyses were plotted against the logarithmic concentration of compounds and fitted by the non-linear module [Sigmoidal, 4PL, X is log(concentration)] using GraphPad Prism V9(86) for macOS. In Table 1 compounds with EC50 values, indicating the potency of the 58 developed compounds to impair cell vitality, are listed. […] Table 2: EC-values of the synthesized compounds of formula (I)
`NC(=O)c1cc(Cc2ccccc2)sc1NC(=O)c1ccc2c(c1)OCO2` [compound 38, N-[3-(aminocarbonyl)-5-benzyl-2-thienyl]-1,3-benzodioxole-5-carboxamide] had an EC50 of 1300 nM. `COc1ccc(C(=O)Nc2sccc2C(N)=O)cc1COc1ccccc1Cl` [compound 27, 2-{3-[(2-Chlorophenoxy)methyl]-4-methoxybenzamido}thiophene-3-carboxamide] showed an EC50 of 1660 nM. With `NC(=O)c1cc(Cc2ccccc2)sc1NC(=O)CN1CCN(Cc2ccccc2Cl)CC1` [compound 54, 2-{2-[4-(2-Chlorobenzyl)piperazin-1-yl]acetamido}-5-benzylthiophene-3-carboxamide] the figure was 7110 nM. The value for `COc1cc(C=CC(=O)Nc2ccccc2C(N)=O)ccc1OCc1ccccc1` [compound 28, 2-({3-[4-(Benzyloxy)-3-methoxyphenyl]acryloyl}amino)benzamide] was 1880 nM. With `CCc1c(C(=O)Nc2sc(Cc3ccccc3)cc2C(N)=O)csc1C` [compound 33, 5-Benzyl-2-{[(4-ethyl-5-methyl-3-thienyl)carbonyl]amino}-3-thiophenecarboxamide] the figure was 5060 nM; with `NC(=O)c1cc(Cc2ccccc2)sc1NC(=O)c1ccc(Cl)s1` [compound 36, N-[3-(Aminocarbonyl)-5-benzyl-2-thienyl]-5-chloro-2-thiophenecarboxamide], 1660 nM; with `NC(=O)c1ccccc1OCC(=O)c1ccc(Br)cc1` [compound 19, 2-[2-(4-Bromophenyl)-2-oxoethoxy]benzamide], 2950 nM. As for `NC(=O)c1ccccc1NC(=O)c1ccccc1` [compound 14, N-(2-carbamoylphenyl)benzamide], the response was half-maximal at 10500 nM (EC50). With `NC(=O)c1c(NC(=O)c2ccc(Cl)s2)sc2c1CCCC2` [compound 30, 2-{[(5-Chloro-2-thienyl)carbonyl]amino}-4,5,6,7-tetrahydro-1-benzothiophene-3-carboxamide] the figure was 1470 nM; with `COc1ccc(C(=O)Nc2sc(C(C)C)cc2C(N)=O)cc1COc1ccc(Br)cc1` [compound 58, 2-({3-[(4-Bromophenoxy)methyl]-4-methoxybenzoyl}amino)-5-isopropyl-3-thiophenecarboxamide], 8340 nM; with `NC(=O)c1ccccc1NC(=O)c1ccc(Cl)s1` [compound 13, N-(2-carbamoylphenyl)-5-chlorothiophene-2-carboxamide], 2300 nM. With `NC(=O)c1cc(Cc2ccccc2)sc1NC(=O)c1ccc(COc2ccc(Br)cc2)cc1` [compound 43, 5-Benzyl-2-({4-[(4-bromophenoxy)methyl]benzoyl}amino)-3-thiophenecarboxamide] the figure was 1190 nM; with `NC(=O)c1cc(Cc2ccccc2)sc1NC(=O)COc1ccccc1` [compound 40, 5-Benzyl-2-[(phenoxyacetyl)amino]-3-thiophenecarboxamide], 2420 nM; with `COc1ccc(C(=O)Nc2sc(Cc3ccccc3)cc2C(N)=O)cc1COc1ccccc1Cl` [compound 44, 5-Benzyl-2-({3-[(2-chlorophenoxy)methyl]-4-methoxybenzoyl}amino)-3-thiophenecarboxamide], 439 nM.

Take `NC(=O)c1cc(Cl)ccc1OCC(=O)c1ccc(Cl)s1` [compound 9, 5-chloro-2-[2-(5-chlorothiophen-2-yl)-2-oxoethoxy]benzamide]: the EC50 was 1330 nM. The value for `NC(=O)c1cc(Cc2ccccc2)sc1NC(=O)CN1CCN(Cc2ccc(Cl)c(Cl)c2)CC1` [compound 55, 2-{2-[4-(3,4-Dichlorobenzyl)piperazin-1-yl]acetamido}-5-benzylthiophene-3-carboxamide] was 4090 nM; that for `NC(=O)c1ccccc1OCc1ccc(Cl)s1` [compound 1, 2-[(5-chlorothiophen-2-yl)methoxy]benzamide] was 5610 nM; that for `NC(=O)c1cc(Cc2ccccc2)sc1NC(=O)c1ccccc1` [compound 37, 2-(Benzoylamino)-5-benzyl-3-thiophenecarboxamide] was 2270 nM. The compound `COc1ccc(C(=O)Nc2sc(Cc3ccccc3)cc2C(N)=O)cc1COc1ccc(Cl)cc1` [compound 52, 5-Benzyl-2-{3-[(4-chlorophenoxy)methyl]-4-methoxybenzamido}thiophene-3-carboxamide] showed an EC50 of 1020 nM. With `NC(=O)c1ccsc1NC(=O)CN1CCN(Cc2ccc(Cl)c(Cl)c2)CC1` [compound 56, 2-{2-[4-(3,4-Dichlorobenzyl)piperazin-1-yl]acetamido}thiophene-3-carboxamide], the EC50 was found to be 781 nM. The value for `NC(=O)c1ccccc1NC(=O)C1CCN(C(=O)c2cccs2)CC1` [compound 11, N-[2-(aminocarbonyl)phenyl]-1-(2-thienylcarbonyl)-4-piperidinecarboxamide] was 5180 nM. The value for `COc1ccc(C(=O)Nc2sc(Cc3ccccc3)cc2C(N)=O)cc1` [compound 41, 5-Benzyl-2-[(4-methoxybenzoyl)amino]-3-thiophenecarboxamide] was 1940 nM; that for `NC(=O)c1ccccc1NC(=O)CN1CCN(Cc2c(Cl)cccc2Cl)CC1` [compound 22, 2-({[4-(2,6-Dichlorobenzyl)-1-piperazinyl]acetyl}amino)benzamide] was 6460 nM; that for `CCc1cc(C(=O)Nc2sccc2C(N)=O)cs1` [compound 15, 2-{[(5-Ethyl-3-thienyl)carbonyl]amino}-3-thiophenecarboxamide] was 2950 nM.

The compound `NC(=O)c1cc(Cc2ccccc2)sc1NC(=O)c1cccc(COc2ccc(Cl)cc2Cl)c1` [compound 50, 5-Benzyl-2-{3-[(2,4-dichlorophenoxy)methyl]benzamido}thiophene-3-carboxamide] yielded an EC50 of 47 nM. In the case of `CCc1cc(C(=O)Nc2sc(Cc3ccccc3)cc2C(N)=O)cs1` [compound 32, 5-Benzyl-2-{[(5-ethyl-3-thienyl)carbonyl]amino}-3-thiophenecarboxamide], a half-maximal response (EC50) required 1900 nM. With `COc1ccc(C(=O)Nc2ccccc2C(N)=O)cc1COc1ccccc1Cl` [compound 26, 2-{3-[(2-Chlorophenoxy)methyl]-4-methoxybenzamido}benzamide] the figure was 1100 nM; with `NC(=O)c1ccccc1NC(=O)CN1CCN(Cc2ccc(Cl)cc2Cl)CC1` [compound 21, 2-({[4-(2,4-Dichlorobenzyl)-1-piperazinyl]acetyl}amino)benzamide], 993 nM. With `CNC(=O)c1ccccc1NC(=O)c1cc(C)c(C)s1` [compound 8, 4,5-Dimethyl-N-[2-(methylcarbamoyl)phenyl]thiophene-2-carboxamide] the figure was 2830 nM; with `NC(=O)c1cc(Cc2ccccc2)sc1NC(=O)c1cccs1` [compound 31, N-[3-(aminocarbonyl)-5-benzyl-2-thienyl]-2-thiophenecarboxamide], 671 nM. With `NC(=O)c1cc(Cc2ccccc2)sc1NC(=O)Cc1cccs1` [compound 34, 5-Benzyl-2-[(2-thienylacetyl)amino]-3-thiophenecarboxamide] the figure was 1160 nM. `COc1ccc(OCc2cc(-c3nc4sc(Cc5ccccc5)cc4c(=O)[nH]3)ccc2OC)cc1` [compound 5, 6-Benzyl-2-{4-methoxy-3-[(4-methoxyphenoxy)methyl]phenyl}thieno[2,3-d]pyrimidin-4(3H)-one] displayed an EC50 of 1120 nM. The value for `CC(Sc1nnc(NC(=O)c2ccccc2)s1)c1nc2ccccc2c(=O)[nH]1` (stereo not drawn) [compound 6, N-(5-{[1-(4-oxo-3,4-dihydro-2-quinazolinyl)ethyl]thio}-1,3,4-thiadiazol-2-yl)benzamide] was 4050 nM; that for `NC(=O)c1ccccc1NC(=O)c1cc(Cl)cc(Cl)c1` [compound 18, N-[2-(aminocarbonyl)phenyl]-3,5-dichlorobenzamide] was 5140 nM; that for `NC(=O)c1ccsc1NC(=O)c1cccs1` [compound 10, N-[3-(aminocarbonyl)-2-thienyl]-2-thiophenecarboxamide] was 3230 nM. Consider `NC(=O)c1cc(Cc2ccccc2)sc1NC(=O)c1ccc(COc2ccc(Cl)cc2Cl)s1` [compound 49, N-(5-Benzyl-3-carbamoylthiophen-2-yl)-5-[(2,4-dichlorophenoxy)methyl]thiophene-2-carboxamide], for which the response was half-maximal at 560 nM (EC50).

The compound `NC(=O)c1ccccc1NC(=O)CN1CCN(Cc2ccccc2Cl)CC1` [compound 24, 2-({[4-(2-Chlorobenzyl)-1-piperazinyl]acetyl}amino)benzamide] returned an EC50 of 9580 nM. With `NC(=O)c1ccccc1NC(=O)CN1CCN(Cc2ccc(Cl)c(Cl)c2)CC1` [compound 20, 2-({[4-(3,4-Dichlorobenzyl)-1-piperazinyl]acetyl}amino)benzamide] the figure was 1220 nM; with `NC(=O)c1c(NC(=O)c2ccc(Cl)s2)sc2c1CCC2` [compound 29, 2-{[(5-Chloro-2-thienyl)carbonyl]amino}-5,6-dihydro-4H-cyclopenta[b]thiophene-3-carboxamide], 6270 nM.
